Source: PubChem BioAssay AID1963831 (Molecular Pharmacology Branch, DTP, NCI, 2024)

Test system: 889142-216-R-J1-PDC complex spheroid viability
Test: Anticancer human tumor 889142-216-R-J1-PDC patient-derived bladder carcinoma cell line growth inhibition [POLQ]
Conditions: for IC50: curve of first compound; for viability, T/C: stronger effect = lower value
Outline: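 Patient-derived tumour cells were co-cultured with HUVEC and mesenchymal stem cells as multicellular spheroids at 37 °C. They were treated with POLQ inhibitors (novobiocin, ART-558, RP6685) alone or combined with other agents. Top concentrations were at or near clinical Cmax (otherwise 10 microM; SN-38 at 1 microM), decreasing in half-log steps.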

[1] = second compound 0.0316 µM, first compound 0.0316 µM
[2] = second compound 0.0316 µM, first compound 0.1 µM
[3] = second compound 0.0316 µM, first compound 0.316 µM
[4] = second compound 0.0316 µM, first compound 1 µM
[5] = second compound 0.1 µM, first compound 0.0316 µM
[6] = second compound 0.1 µM, first compound 0.1 µM
[7] = second compound 0.1 µM, first compound 0.316 µM
[8] = second compound 0.1 µM, first compound 1 µM
[9] = second compound 0.316 µM, first compound 0.0316 µM
[10] = second compound 0.316 µM, first compound 0.1 µM
[11] = second compound 0.316 µM, first compound 0.316 µM
[12] = second compound 0.316 µM, first compound 1 µM
[13] = second compound 1 µM, first compound 0.0316 µM
[14] = second compound 1 µM, first compound 0.1 µM
[15] = second compound 1 µM, first compound 0.316 µM
[16] = second compound 1 µM, first compound 1 µM
[17] = second compound 3.16 µM, first compound 0.0316 µM
[18] = second compound 3.16 µM, first compound 0.1 µM
[19] = second compound 3.16 µM, first compound 0.316 µM
[20] = second compound 3.16 µM, first compound 1 µM
[21] = second compound 10 µM, first compound 0.0316 µM
[22] = second compound 10 µM, first compound 0.1 µM
[23] = second compound 10 µM, first compound 0.316 µM
[24] = second compound 10 µM, first compound 1 µM
[25] = second compound 0.0316 µM, first compound 3.16 µM
[26] = second compound 0.0316 µM, first compound 10 µM
[27] = second compound 0.1 µM, first compound 3.16 µM
[28] = second compound 0.1 µM, first compound 10 µM
[29] = second compound 0.316 µM, first compound 3.16 µM
[30] = second compound 0.316 µM, first compound 10 µM
[31] = second compound 1 µM, first compound 3.16 µM
[32] = second compound 1 µM, first compound 10 µM
[33] = second compound 3.16 µM, first compound 3.16 µM
[34] = second compound 3.16 µM, first compound 10 µM
[35] = second compound 10 µM, first compound 3.16 µM
[36] = second compound 10 µM, first compound 10 µM
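Note: spheroids exposed to compounds for seven days.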
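Throughout, for viability, T/C: 100% = DMSO vehicle control viability.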

CCc1c2c(nc3ccc(O)cc13)-c1cc3c(c(=O)n1C2)COC(=O)[C@]3(O)CC + Nc1ccc(C#CCN(C(=O)Cc2ncc(C(F)(F)F)cc2C(F)(F)F)c2ccc(F)cc2)nn1
IC50 (second compound 0.0316 µM): 19.5 nM | IC50 (second compound 0.1 µM): 16 nM | IC50 (second compound 0.316 µM): 13.3 nM | IC50 (second compound 1 µM): 12.6 nM | IC50 (second compound 3.16 µM): 22.4 nM | IC50 (second compound 10 µM): 11.7 nM | viability, T/C (second compound 0.0316 µM, first compound 0.00316 µM): 63.1% | viability, T/C (second compound 0.0316 µM, first compound 0.01 µM): 61.6% | viability, T/C [1]: 41.2% | viability, T/C [2]: 32.9% | viability, T/C [3]: 25.2% | viability, T/C [4]: 9.02% | viability, T/C (second compound 0.1 µM, first compound 0.00316 µM): 61.2% | viability, T/C (second compound 0.1 µM, first compound 0.01 µM): 51.1% | viability, T/C [5]: 44.6% | viability, T/C [6]: 34.8% | viability, T/C [7]: 30.4% | viability, T/C [8]: 8.83% | viability, T/C (second compound 0.316 µM, first compound 0.00316 µM): 66.6% | viability, T/C (second compound 0.316 µM, first compound 0.01 µM): 50% | viability, T/C [9]: 38.6% | viability, T/C [10]: 34% | viability, T/C [11]: 23.9% | viability, T/C [12]: 11.5% | viability, T/C (second compound 1 µM, first compound 0.00316 µM): 70% | viability, T/C (second compound 1 µM, first compound 0.01 µM): 46.6% | viability, T/C [13]: 41.3% | viability, T/C [14]: 30.5% | viability, T/C [15]: 23.4% | viability, T/C [16]: 11.2% | viability, T/C (second compound 3.16 µM, first compound 0.00316 µM): 59.3% | viability, T/C (second compound 3.16 µM, first compound 0.01 µM): 65.6% | viability, T/C [17]: 39.4% | viability, T/C [18]: 35.8% | viability, T/C [19]: 30.9% | viability, T/C [20]: 8.37% | viability, T/C (second compound 10 µM, first compound 0.00316 µM): 57.4% | viability, T/C (second compound 10 µM, first compound 0.01 µM): 52.2% | viability, T/C [21]: 41% | viability, T/C [22]: 31.6% | viability, T/C [23]: 28.3% | viability, T/C [24]: 6.89%

CC1COCCN1c1cc(C2(O)CC3CCC(C2)O3)c2cnn(-c3ccn[nH]3)c2n1 (stereo unspecified) + COC1C(OC(N)=O)C(O)C(Oc2ccc3c(O)c(NC(=O)c4ccc(O)c(CC=C(C)C)c4)c(=O)oc3c2C)OC1(C)C
IC50 (second compound 0.0316 µM): 125 nM | IC50 (second compound 0.1 µM): 132 nM | IC50 (second compound 0.316 µM): 180 nM | IC50 (second compound 1 µM): 195 nM | IC50 (second compound 3.16 µM): 169 nM | IC50 (second compound 10 µM): 93.3 nM | viability, T/C [1]: 64.3% | viability, T/C [2]: 50.6% | viability, T/C [3]: 40.6% | viability, T/C [4]: 32.7% | viability, T/C [25]: 26.2% | viability, T/C [26]: 14.7% | viability, T/C [5]: 69.9% | viability, T/C [6]: 50.2% | viability, T/C [7]: 38.6% | viability, T/C [8]: 32.5% | viability, T/C [27]: 27.5% | viability, T/C [28]: 15.2% | viability, T/C [9]: 66.4% | viability, T/C [10]: 53.6% | viability, T/C [11]: 40.2% | viability, T/C [12]: 37.5% | viability, T/C [29]: 33.3% | viability, T/C [30]: 13.2% | viability, T/C [13]: 77.4% | viability, T/C [14]: 54.9% | viability, T/C [15]: 42.4% | viability, T/C [16]: 32.2% | viability, T/C [31]: 29.5% | viability, T/C [32]: 12.7% | viability, T/C [17]: 64.3% | viability, T/C [18]: 54.5% | viability, T/C [19]: 40.5% | viability, T/C [20]: 39.2% | viability, T/C [33]: 25.2% | viability, T/C [34]: 14.1% | viability, T/C [21]: 65.2% | viability, T/C [22]: 43.2% | viability, T/C [23]: 39.2% | viability, T/C [24]: 30.6% | viability, T/C [35]: 30.1% | viability, T/C [36]: 13.9%

CC1COCCN1c1cc(-c2ccnn2C)c2ccnc(-c3ccn[nH]3)c2n1 (stereo unspecified) + Nc1ccc(C#CCN(C(=O)Cc2ncc(C(F)(F)F)cc2C(F)(F)F)c2ccc(F)cc2)nn1
IC50 (second compound 0.0316 µM): 386 nM | IC50 (second compound 0.1 µM): 349 nM | IC50 (second compound 0.316 µM): 349 nM | IC50 (second compound 1 µM): 133 nM | IC50 (second compound 3.16 µM): 353 nM | IC50 (second compound 10 µM): 557 nM | viability, T/C [1]: 69.5% | viability, T/C [2]: 60.1% | viability, T/C [3]: 53.7% | viability, T/C [4]: 41% | viability, T/C [25]: 32.8% | viability, T/C [26]: 32.7% | viability, T/C [5]: 71.8% | viability, T/C [6]: 60% | viability, T/C [7]: 48.6% | viability, T/C [8]: 44.5% | viability, T/C [27]: 32.2% | viability, T/C [28]: 24.6% | viability, T/C [9]: 73.3% | viability, T/C [10]: 54.6% | viability, T/C [11]: 52.7% | viability, T/C [12]: 42.7% | viability, T/C [29]: 36.6% | viability, T/C [30]: 25.5% | viability, T/C [13]: 77.7% | viability, T/C [14]: 45.8% | viability, T/C [15]: 47.8% | viability, T/C [16]: 39.3% | viability, T/C [31]: 38.2% | viability, T/C [32]: 27.3% | viability, T/C [17]: 62.9% | viability, T/C [18]: 57.2% | viability, T/C [19]: 51% | viability, T/C [20]: 43.2% | viability, T/C [33]: 38.9% | viability, T/C [34]: 32.3% | viability, T/C [21]: 72.4% | viability, T/C [22]: 68.2% | viability, T/C [23]: 56.3% | viability, T/C [24]: 42.3% | viability, T/C [35]: 38.1% | viability, T/C [36]: 31.7%
